From publication PMC11188305, “Reproductive and fetal toxicity studies of histamine H3 receptor antagonist DL76 used in mice to prevent maximal electroshock-induced seizure” (Frontiers in Pharmacology, 2024)

System: C57/B6 mouse embryos
Assay: Reproductive studies: maternal, fetal and gross/visceral malformation observations after treatment on GD-8 or GD-13
Type: in vivo
Conditions: for Number of female embryos / Number of male embryos: number (percentage); for Exomphalos / Eye open / Kinky tail / Left/right kidney hypo/descended / Mandible hypoplasia / Maxilla hypoplasia / Microtia/low set microtia / Undescended testis: number of embryos (percentage); for Live fetus/litter / Resorption/litter: parentheses contain percentages; for Placental weight, IUGR −2SD: fraction (percentage); for Fetal weight, IUGR −1SD / Fetal weight, IUGR −2SD: fraction of fetuses (percentage)
Protocol: Reproductive studies were conducted in adult female mice, averaging 30 gm in weight and 6 weeks in age ([Padmanabhan et al., 2006]; [Bastaki et al., 2018]). Following successful mating, indicated by vaginal plug observation, the plug-positive day was considered gestation day 0 (GD-0). DL76 was administered at various doses (7.5 mg/kg, 15 mg/kg, 30 mg/kg, and 60 mg/kg) through single i.p. injections and three 15 mg/kg injections in 1 day to mouse groups on GD-8 and GD-13 (Tables 1, 2). The control group was injected with normal saline. Appropriate formation of different organs occurs in specific periods of the development of the mouse. These two periods were selected because GD-8 is known to be a critical period for the induction of neural tube defects, craniofacial malformations, and the development of other organs, whereas on GD-13, the retina and other parts are being formed, and most other organs have been formed. The number of implantations, fetal deaths, and resorptions was recorded. Fetal and placental weights were documented separately. After blotting dry, the fetuses were weighed and fixed in 95% ethanol. The reproductive toxicological effects of DL76 were assessed by observing gross and visceral malformations, following [Sterz and Lehmann (1985)], [Abdulrazzaq et al. (1997)], [Padmanabhan et al. (2003)], and [Padmanabhan et al. (2006)].
Deformities of the embryos were identified according to a modified method of [Sterz and Lehmann (1985)], [Abdulrazzaq et al. (1997)], and [Bass et al. (2020)]. Accordingly, the embryos were removed from the 95% ethanol, and the lower part of the abdomen was cut using a razor blade. All organs were checked for abnormalities with a stereo dissecting microscope, and finally, the organs were removed by using forceps.
Statistical analyses employed SPSS 26.0 (IBM Middle East, Dubai, UAE). Data were presented as means ± SEM. […] Fetal abnormality data were presented as counts and percentages. Fisher’s exact test compared the percentages of abnormalities between the control group (saline) and the different dose groups. All tests were two-tailed, and significance was set at p < 0.05.

In the case of `CC(C)(C)c1ccc(OCCCN2CCCCC2)cc1` [DL76, 1-(3-(4-tert-butyl-phenoxy)propyl) piperidine], the “Number of female embryos” value (30 mg/kg i.p. on GD-13) is reported as 24 (55.8), the “Number of male embryos” value (30 mg/kg i.p. on GD-13) is reported as 19 (44.2) and the Exomphalos (30 mg/kg i.p. on GD-13) is reported as 1 (2.3). The Eye open (30 mg/kg i.p. on GD-13) was 0, the Kinky tail (30 mg/kg i.p. on GD-13) was 0 and the Left/right kidney hypo/descended (30 mg/kg i.p. on GD-13) was 1 (2.3). The Mandible hypoplasia (30 mg/kg i.p. on GD-13) was 3 (7.0), the Maxilla hypoplasia (30 mg/kg i.p. on GD-13) was 2 (4.7) and the Microtia/low set microtia (30 mg/kg i.p. on GD-13) was 1 (2.3). For the same molecule, the Undescended testis (30 mg/kg i.p. on GD-13) was 0, the Live fetus/litter (30 mg/kg i.p. on GD-13) was 6.143 (87.76) and the Resorption/litter (30 mg/kg i.p. on GD-13) was “.857 (12.24)”. For the same molecule, the “Fetal weight/Litter (g) (Mean ± SD)” value (60 mg/kg i.p. on GD-8) was 1.048 ± .0156 g, the Fetuses/litter (60 mg/kg i.p. on GD-8) was 7.286 ± 1.380 and the “Placental weight/Litter (g) (mean ± SD)” value (60 mg/kg i.p. on GD-8) was 0.101 ± 0.010 g. For the same molecule, the “Placental weight, IUGR −2SD” value (60 mg/kg i.p. on GD-8) was 0, the “Fetal weight, IUGR −1SD” value (60 mg/kg i.p. on GD-8) was 0 and the “Number of female embryos” value (60 mg/kg i.p. on GD-8) was 21 (45.7). The “Number of male embryos” value (60 mg/kg i.p. on GD-8) was 25 (54.3), the Exomphalos (60 mg/kg i.p. on GD-8) was 0 and the Eye open (60 mg/kg i.p. on GD-8) was 1 (2.2). For the same molecule, the Kinky tail (60 mg/kg i.p. on GD-8) was 0, the Left/right kidney hypo/descended (60 mg/kg i.p. on GD-8) was 2 (4.3) and the Mandible hypoplasia (60 mg/kg i.p. on GD-8) was 4 (8.7). For the same molecule, the Maxilla hypoplasia (60 mg/kg i.p. on GD-8) was 2 (4.3), the Microtia/low set microtia (60 mg/kg i.p. on GD-8) was 2 (4.3) and the Undescended testis (60 mg/kg i.p. on GD-8) was 0. For the same molecule, the Live fetus/litter (60 mg/kg i.p. on GD-8) was 6.571 (90.20), the Resorption/litter (60 mg/kg i.p. on GD-8) was 0.714 (9.80) and the “Fetal weight Litter (g) (Mean ± SD)” value (60 mg/kg i.p. on GD-13) was 1.051 ± 0.122 g. For the same molecule, the Fetuses/litter (60 mg/kg i.p. on GD-13) was 7.000 ± 1.414, the “Placental weight/Litter (g) (mean ± SD)” value (60 mg/kg i.p. on GD-13) was 0.097 ± 0.010 g and the “Fetal weight, IUGR −1SD” value (60 mg/kg i.p. on GD-13) was 0. For the same molecule, the “Fetal weight, IUGR −2SD” value (60 mg/kg i.p. on GD-13) was 0, the “Number of female embryos” value (60 mg/kg i.p. on GD-13) was 17 (53.1) and the “Number of male embryos” value (60 mg/kg i.p. on GD-13) was 15 (46.9). The Exomphalos (60 mg/kg i.p. on GD-13) was 0, the Eye open (60 mg/kg i.p. on GD-13) was 2 (6.3) and the Kinky tail (60 mg/kg i.p. on GD-13) was 0. For the same molecule, the Left/right kidney hypo/descended (60 mg/kg i.p. on GD-13) was 2 (6.3), the Mandible hypoplasia (60 mg/kg i.p. on GD-13) was 2 (6.3) and the Maxilla hypoplasia (60 mg/kg i.p. on GD-13) was 2 (6.3). The Microtia/low set microtia (60 mg/kg i.p. on GD-13) was 2 (6.3), the Undescended testis (60 mg/kg i.p. on GD-13) was 2 (6.3) and the Live fetus/litter (60 mg/kg i.p. on GD-13) was 5.333 (76.19). For the same molecule, the Resorption/litter (60 mg/kg i.p. on GD-13) was 1.667 (23.81), the “Fetal weight/Litter (g) (Mean ± SD)” value (3 × 15-dose i.p. on GD-8) was 1.037 ± 0.101 g and the Fetuses/litter (3 × 15-dose i.p. on GD-8) was 8.143 ± 0.690. For the same molecule, the “Placental weight/Litter (g) (mean ± SD)” value (3 × 15-dose i.p. on GD-8) was 0.092 ± 0.007 g, the “Placental weight, IUGR −2SD” value (3 × 15-dose i.p. on GD-8) was 0 and the “Fetal weight, IUGR −2SD” value (3 × 15-dose i.p. on GD-8) was 0. For the same molecule, the “Number of female embryos” value (3 × 15-dose i.p. on GD-8) was 24 (51.1), the “Number of male embryos” value (3 × 15-dose i.p. on GD-8) was 23 (48.9) and the Exomphalos (3 × 15-dose i.p. on GD-8) was 0. The Eye open (3 × 15-dose i.p. on GD-8) was 4 (8.5), the Kinky tail (3 × 15-dose i.p. on GD-8) was 0 and the Left/right kidney hypo/descended (3 × 15-dose i.p. on GD-8) was 2 (4.3). For the same molecule, the Mandible hypoplasia (3 × 15-dose i.p. on GD-8) was 3 (6.4), the Maxilla hypoplasia (3 × 15-dose i.p. on GD-8) was 2 (4.3) and the Microtia/low set microtia (3 × 15-dose i.p. on GD-8) was 2 (4.3). The Undescended testis (3 × 15-dose i.p. on GD-8) was 1 (2.1), the Live fetus/litter (3 × 15-dose i.p. on GD-8) was 6.714 (82.46) and the Resorption/litter (3 × 15-dose i.p. on GD-8) was 1.429 (17.54). For the same molecule, the “Fetal weight Litter (g) (Mean ± SD)” value (3 × 15-dose i.p. on GD-13) was 1.051 ± 0.031 g, the Fetuses/litter (3 × 15-dose i.p. on GD-13) was 8.286 ± 1.704 and the “Placental weight/Litter (g) (mean ± SD)” value (3 × 15-dose i.p. on GD-13) was 0.110 ± 0.012 g. For the same molecule, the “Placental weight, IUGR −2SD” value (3 × 15-dose i.p. on GD-13) was 0, the “Fetal weight, IUGR −1SD” value (3 × 15-dose i.p. on GD-13) was 0 and the “Fetal weight, IUGR −2SD” value (3 × 15-dose i.p. on GD-13) was 0. For the same molecule, the “Number of female embryos” value (3 × 15-dose i.p. on GD-13) was 24 (50.0), the “Number of male embryos” value (3 × 15-dose i.p. on GD-13) was 24 (50.0) and the Exomphalos (3 × 15-dose i.p. on GD-13) was 1 (2.1). The Eye open (3 × 15-dose i.p. on GD-13) was 6 (12.5), the Kinky tail (3 × 15-dose i.p. on GD-13) was 1 (2.1) and the Left/right kidney hypo/descended (3 × 15-dose i.p. on GD-13) was 2 (4.2). The Mandible hypoplasia (3 × 15-dose i.p. on GD-13) was 3 (6.3), the Maxilla hypoplasia (3 × 15-dose i.p. on GD-13) was 3 (6.3) and the Microtia/low set microtia (3 × 15-dose i.p. on GD-13) was 3 (6.3). For the same molecule, the Undescended testis (3 × 15-dose i.p. on GD-13) was 0, the Live fetus/litter (3 × 15-dose i.p. on GD-13) was 6.857 (82.76) and the Resorption/litter (3 × 15-dose i.p. on GD-13) was 1.429 (17.24). The “mean fetal weight in each litter, treatment groups vs controls” value (GD-8 and GD-13, all doses) was “not significantly different”, the “mean placental weights, treated groups vs controls” value (GD-8 and GD-13, all doses) was “not significantly different” and the “number of fetuses in each litter, between all study groups” value (GD-8 and GD-13, all doses) was “not significantly different”. The “number of live fetuses, between all study groups” value (GD-8 and GD-13, all doses) was “not significantly different”, the “resorption rate, between all the groups” value (GD-8 and GD-13, all doses) was “not significantly different” and the maternal toxicity (all groups, GD-8 and GD-13 treated animals) was “no sign of maternal toxicity”. For the same molecule, the “incidence of exencephaly and craniofacial malformations, exomphalos, microtia, open eye, palate, hydronephrosis, descended kidney, undescended testis, kinky tail” value (between any of the groups studied) was “no significant difference”, the “average number of implantations and resorptions, control vs DL76-treated groups” value (early stages of gestation and organogenesis period) was “No significant alterations” and the “maternal body weight vs control mice group” value (single 7.5, 15, 30 or 60 mg/kg i.p. or multiple doses 3 × 15 mg/kg i.p. on GD 8 or 13) was “failed to affect”. For the same molecule, the “incidence of gross morphological anomalies in treated fetuses vs control group” value (single- and multiple-dose groups given i.p.) was “not significantly different”.
